How the values were obtained:
[1] = target: ROCK2 (Homo sapiens, UniProt O75116); test: Activity against kinase ROCK2; format: biochemical; conditions: comparison of enantiomers
[2] = target: T1, M2 (h) (Homo sapiens, UniProt P08172); test: CEREP panel M2 (h) antagonist effect, cAMP HTRF; format: cell-based; conditions: HCl salt tested; CHO cells, acetylcholine (300 nM)
T1 construct: expressed in transfected cells; host or cells: CHO cells
T1 sequence (P08172 1-466): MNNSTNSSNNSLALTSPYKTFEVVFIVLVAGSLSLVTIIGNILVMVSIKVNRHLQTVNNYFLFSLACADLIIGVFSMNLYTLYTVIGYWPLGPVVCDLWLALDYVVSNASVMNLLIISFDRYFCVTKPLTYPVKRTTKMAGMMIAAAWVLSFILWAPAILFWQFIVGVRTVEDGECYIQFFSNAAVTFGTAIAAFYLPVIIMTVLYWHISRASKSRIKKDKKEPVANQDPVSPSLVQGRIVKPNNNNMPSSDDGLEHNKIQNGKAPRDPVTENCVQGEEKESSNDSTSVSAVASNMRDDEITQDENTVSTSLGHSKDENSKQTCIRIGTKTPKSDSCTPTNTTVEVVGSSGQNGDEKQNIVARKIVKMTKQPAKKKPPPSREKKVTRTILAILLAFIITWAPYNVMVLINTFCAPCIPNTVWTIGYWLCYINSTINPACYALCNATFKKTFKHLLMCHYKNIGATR
From the text: (§1) The use of in vitro pharmacological screening against a diverse range of targets (receptors, ion channels, enzymes and transporters) is used to identify undesirable off-target activity that may cause adverse drug reactions in humans. Screening panels (e.g. SafetyScreen44™ Panel, Eurofins) comprise a selection of off-targets linked with known issues in humans that could hinder or halt the development of drug candidates or market withdrawal if discovered after a drug is approved. The HCl salts of the S enantiomer and the R enantiomer of compound A were tested against a panel of such targets.
(§2) The tests were carried out according to the methods described in the following tables and indicated literature references.

[3] = target: PKCeta (Homo sapiens, UniProt P24723); test: Kinase panel 33P-ATP filter assay, PKCeta; format: biochemical; conditions: HCl salt tested; ATP Conc. 15 μM (Km); read-out: Compound IC50 (nM) PKCeta
Experimental: (§3) The HCl salts of S enantiomer and the R enantiomer of compound A were tested against a panel of kinases.
(§4) Compounds were received as powder and resuspended to 10 mM DMSO stock. Compounds were tested in 10-dose IC50 mode with a 3-fold serial dilution starting at 10 μM. Control compound, staurosporine, was tested in 10-dose IC50 mode with 4-fold serial dilution starting at 20 μM.
(§5) Reaction Conditions: Buffer Conditions: 20 mM HEPES ((4-(2-hydroxyethyl)-1-piperazineethanesulfonic acid; pH 7.5), 10 mM MgCl2, 1 mM EGTA (Ethyleneglycol-bis(p-aminoethyl)-N,N,N′,N′-tetraacetic Acid), 0.01% Brij35, 0.02 mg/ml BSA (Bovine serum albumin), 0.1 mM Na3VO4, 2 mM DTT (Dithiothreitol), 1% DMSO. Reaction Procedure: 1. Prepare indicated substrate in freshly prepared reaction buffer. 2. Deliver required cofactors to the substrate solution above. 3. Deliver indicated kinase into the substrate solution and mix gently. 4. Deliver compounds in DMSO into the kinase reaction mixture utilizing acoustic technology (Echo550). 5. Deliver ^33P-ATP (specific activity 0.01 μCi/μl final) into the reaction mixture to initiate the reaction. 6. Incubate kinase reaction for 120 minutes at room temperature. 7. […] Data Analysis: Kinase activity data were expressed as the percent remaining kinase activity in test samples compared to vehicle (dimethyl sulfoxide) reactions. […]

[4] = target: T2, Serotonin transporter (Homo sapiens, UniProt P31645); test: CEREP panel serotonin transporter uptake (h), [3H]5HT incorporation; format: cell-based; conditions: HCl salt tested; [3H]5HT incorporation in cells
T2 construct: expressed in transfected cells
From the text: as §1, §2

[5] = target: PKCtheta (Homo sapiens, UniProt Q04759); test: Kinase panel 33P-ATP filter assay, PKCtheta; format: biochemical; conditions: HCl salt tested; ATP Conc. 30 μM (Km); read-out: Compound IC50 (nM) PKCtheta
Experimental: as §3, §4, §5

[6] = target: T3, CB1 (h) (Homo sapiens, UniProt P21554); test: CEREP panel CB1 (h) antagonist effect, cAMP HTRF; format: cell-based; conditions: HCl salt tested; CHO cells, CP 55940 (1 nM)
T3 construct: expressed in transfected cells; host or cells: CHO cells
From the text: as §1, §2

[7] = target: T4, CB2 (h) (Homo sapiens, UniProt P34972); test: CEREP panel CB2 (h) agonist effect, cAMP HTRF; format: cell-based; conditions: HCl salt tested, CHO cells
T4 construct: expressed in transfected cells; host or cells: CHO cells
From the text: as §1, §2

[8] = target: ROCK1 (Homo sapiens, UniProt Q13464); test: Activity against kinase ROCK1; format: biochemical; conditions: comparison of enantiomers
[9] = target: T5, MAO-A (Rattus norvegicus, UniProt P21396); test: CEREP panel MAO-A (antagonist radioligand); format: binding; conditions: HCl salt tested
T5 sequence (P21396 1-526): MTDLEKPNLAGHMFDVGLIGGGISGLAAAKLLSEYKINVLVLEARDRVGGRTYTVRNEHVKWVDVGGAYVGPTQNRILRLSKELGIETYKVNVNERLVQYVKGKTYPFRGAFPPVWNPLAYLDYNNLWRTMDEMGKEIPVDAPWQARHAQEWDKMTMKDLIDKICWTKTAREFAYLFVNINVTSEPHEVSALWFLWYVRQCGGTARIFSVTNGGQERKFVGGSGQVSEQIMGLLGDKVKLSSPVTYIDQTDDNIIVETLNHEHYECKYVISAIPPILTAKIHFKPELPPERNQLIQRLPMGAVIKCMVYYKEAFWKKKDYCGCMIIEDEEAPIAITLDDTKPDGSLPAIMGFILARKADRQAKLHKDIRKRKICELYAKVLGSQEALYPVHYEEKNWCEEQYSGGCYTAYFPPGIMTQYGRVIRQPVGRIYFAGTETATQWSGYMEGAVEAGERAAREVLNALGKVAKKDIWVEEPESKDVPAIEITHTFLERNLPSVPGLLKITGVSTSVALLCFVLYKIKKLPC
From the text: as §1, §2

[10] = target: T6, μ (MOP) (h) (Homo sapiens, UniProt P35372); test: CEREP panel mu (MOP) (h) agonist effect, cAMP HTRF; format: cell-based; conditions: HCl salt tested, CHO cells
T6 construct: expressed in transfected cells; host or cells: CHO cells
From the text: as §1, §2

Sequence of PKCeta (P24723 whole entry): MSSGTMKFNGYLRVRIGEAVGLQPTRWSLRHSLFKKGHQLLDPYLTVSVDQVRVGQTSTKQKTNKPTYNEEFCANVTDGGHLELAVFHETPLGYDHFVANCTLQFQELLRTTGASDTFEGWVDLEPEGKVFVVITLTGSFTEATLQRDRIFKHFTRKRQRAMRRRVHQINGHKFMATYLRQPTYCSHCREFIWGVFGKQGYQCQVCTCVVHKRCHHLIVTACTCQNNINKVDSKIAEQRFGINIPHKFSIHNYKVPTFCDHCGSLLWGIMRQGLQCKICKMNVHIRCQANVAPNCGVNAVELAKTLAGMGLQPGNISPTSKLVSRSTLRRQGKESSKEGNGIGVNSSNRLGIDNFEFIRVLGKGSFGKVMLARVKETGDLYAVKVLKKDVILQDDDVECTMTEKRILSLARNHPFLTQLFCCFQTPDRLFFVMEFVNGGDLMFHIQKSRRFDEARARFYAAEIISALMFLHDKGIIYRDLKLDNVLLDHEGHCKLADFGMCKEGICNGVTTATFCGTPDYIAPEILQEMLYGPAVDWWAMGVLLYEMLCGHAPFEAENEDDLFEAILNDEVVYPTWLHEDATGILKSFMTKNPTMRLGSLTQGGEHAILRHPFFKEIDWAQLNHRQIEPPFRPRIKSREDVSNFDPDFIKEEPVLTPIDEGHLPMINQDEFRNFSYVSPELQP
Sequence of PKCtheta (Q04759 whole entry): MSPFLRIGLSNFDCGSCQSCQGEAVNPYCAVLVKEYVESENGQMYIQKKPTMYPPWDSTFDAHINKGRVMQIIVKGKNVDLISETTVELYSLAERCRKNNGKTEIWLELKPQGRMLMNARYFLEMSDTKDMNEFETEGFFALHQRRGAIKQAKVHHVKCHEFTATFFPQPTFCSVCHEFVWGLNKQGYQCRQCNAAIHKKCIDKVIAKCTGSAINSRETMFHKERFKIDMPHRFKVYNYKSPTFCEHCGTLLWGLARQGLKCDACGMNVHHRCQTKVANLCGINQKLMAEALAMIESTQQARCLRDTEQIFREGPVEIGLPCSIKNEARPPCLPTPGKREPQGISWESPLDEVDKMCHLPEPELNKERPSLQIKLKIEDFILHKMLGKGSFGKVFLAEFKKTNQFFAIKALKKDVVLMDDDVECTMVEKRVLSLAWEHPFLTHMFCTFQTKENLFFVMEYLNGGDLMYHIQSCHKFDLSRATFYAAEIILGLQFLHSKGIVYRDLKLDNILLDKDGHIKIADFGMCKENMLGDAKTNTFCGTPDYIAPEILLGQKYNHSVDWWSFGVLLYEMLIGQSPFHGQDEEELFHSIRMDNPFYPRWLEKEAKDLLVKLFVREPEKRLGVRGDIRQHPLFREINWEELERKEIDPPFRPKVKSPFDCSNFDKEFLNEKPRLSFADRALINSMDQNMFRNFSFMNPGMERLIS
T6 sequence (P35372 whole entry): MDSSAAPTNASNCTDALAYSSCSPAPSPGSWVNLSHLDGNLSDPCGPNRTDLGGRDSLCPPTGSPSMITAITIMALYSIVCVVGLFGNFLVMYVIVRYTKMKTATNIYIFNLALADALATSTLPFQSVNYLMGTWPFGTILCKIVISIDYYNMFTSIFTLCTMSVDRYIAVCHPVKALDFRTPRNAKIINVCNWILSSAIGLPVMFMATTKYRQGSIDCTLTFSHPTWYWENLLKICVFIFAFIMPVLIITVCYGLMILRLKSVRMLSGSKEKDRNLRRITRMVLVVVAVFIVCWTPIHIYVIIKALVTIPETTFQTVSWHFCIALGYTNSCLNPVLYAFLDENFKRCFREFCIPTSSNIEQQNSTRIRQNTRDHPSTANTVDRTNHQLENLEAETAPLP
Sequence of ROCK1 (Q13464 whole entry, species assumed): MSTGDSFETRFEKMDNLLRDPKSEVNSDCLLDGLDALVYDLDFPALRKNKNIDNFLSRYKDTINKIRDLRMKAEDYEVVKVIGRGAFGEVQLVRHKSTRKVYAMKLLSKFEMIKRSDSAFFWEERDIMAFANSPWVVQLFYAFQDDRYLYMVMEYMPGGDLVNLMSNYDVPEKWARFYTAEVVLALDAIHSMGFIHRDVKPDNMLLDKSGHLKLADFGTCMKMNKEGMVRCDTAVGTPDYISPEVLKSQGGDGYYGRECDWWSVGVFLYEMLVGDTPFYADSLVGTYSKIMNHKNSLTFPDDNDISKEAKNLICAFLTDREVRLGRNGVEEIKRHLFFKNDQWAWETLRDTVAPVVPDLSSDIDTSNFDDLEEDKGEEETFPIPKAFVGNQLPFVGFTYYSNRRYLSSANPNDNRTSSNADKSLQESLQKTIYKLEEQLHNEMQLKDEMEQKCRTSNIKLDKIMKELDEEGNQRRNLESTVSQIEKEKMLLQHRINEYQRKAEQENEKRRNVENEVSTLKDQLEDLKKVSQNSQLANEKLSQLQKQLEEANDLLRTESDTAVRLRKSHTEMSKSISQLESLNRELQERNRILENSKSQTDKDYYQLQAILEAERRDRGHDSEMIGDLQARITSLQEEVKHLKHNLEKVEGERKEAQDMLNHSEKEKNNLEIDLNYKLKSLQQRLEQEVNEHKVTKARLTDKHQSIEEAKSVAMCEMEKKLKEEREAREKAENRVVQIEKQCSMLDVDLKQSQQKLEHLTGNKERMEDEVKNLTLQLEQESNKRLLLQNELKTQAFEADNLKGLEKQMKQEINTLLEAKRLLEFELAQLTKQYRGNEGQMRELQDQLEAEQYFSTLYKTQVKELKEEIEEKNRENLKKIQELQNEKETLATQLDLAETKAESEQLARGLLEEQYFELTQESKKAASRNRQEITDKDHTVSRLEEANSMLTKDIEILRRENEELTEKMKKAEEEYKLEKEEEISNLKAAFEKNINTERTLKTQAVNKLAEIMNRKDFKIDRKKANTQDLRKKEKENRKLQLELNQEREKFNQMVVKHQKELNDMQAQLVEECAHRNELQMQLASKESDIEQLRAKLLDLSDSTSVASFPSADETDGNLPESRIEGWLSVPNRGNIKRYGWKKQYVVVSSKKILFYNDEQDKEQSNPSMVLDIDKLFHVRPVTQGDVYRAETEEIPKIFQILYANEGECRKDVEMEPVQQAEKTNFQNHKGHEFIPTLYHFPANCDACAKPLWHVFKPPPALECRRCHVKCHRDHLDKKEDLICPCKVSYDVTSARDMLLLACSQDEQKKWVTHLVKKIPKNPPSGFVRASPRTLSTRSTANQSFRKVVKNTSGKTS
T4 sequence (P34972 whole entry): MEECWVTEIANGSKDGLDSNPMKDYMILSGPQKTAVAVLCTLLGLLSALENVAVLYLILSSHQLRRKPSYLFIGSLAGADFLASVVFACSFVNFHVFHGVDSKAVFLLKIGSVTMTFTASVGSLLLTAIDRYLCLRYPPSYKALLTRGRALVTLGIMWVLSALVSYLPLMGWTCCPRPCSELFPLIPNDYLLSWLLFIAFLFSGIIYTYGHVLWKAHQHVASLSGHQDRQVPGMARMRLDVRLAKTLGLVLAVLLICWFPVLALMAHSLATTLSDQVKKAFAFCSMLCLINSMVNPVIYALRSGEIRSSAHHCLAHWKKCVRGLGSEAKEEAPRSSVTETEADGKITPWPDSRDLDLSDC
Sequence of ROCK2 (O75116 whole entry, species assumed): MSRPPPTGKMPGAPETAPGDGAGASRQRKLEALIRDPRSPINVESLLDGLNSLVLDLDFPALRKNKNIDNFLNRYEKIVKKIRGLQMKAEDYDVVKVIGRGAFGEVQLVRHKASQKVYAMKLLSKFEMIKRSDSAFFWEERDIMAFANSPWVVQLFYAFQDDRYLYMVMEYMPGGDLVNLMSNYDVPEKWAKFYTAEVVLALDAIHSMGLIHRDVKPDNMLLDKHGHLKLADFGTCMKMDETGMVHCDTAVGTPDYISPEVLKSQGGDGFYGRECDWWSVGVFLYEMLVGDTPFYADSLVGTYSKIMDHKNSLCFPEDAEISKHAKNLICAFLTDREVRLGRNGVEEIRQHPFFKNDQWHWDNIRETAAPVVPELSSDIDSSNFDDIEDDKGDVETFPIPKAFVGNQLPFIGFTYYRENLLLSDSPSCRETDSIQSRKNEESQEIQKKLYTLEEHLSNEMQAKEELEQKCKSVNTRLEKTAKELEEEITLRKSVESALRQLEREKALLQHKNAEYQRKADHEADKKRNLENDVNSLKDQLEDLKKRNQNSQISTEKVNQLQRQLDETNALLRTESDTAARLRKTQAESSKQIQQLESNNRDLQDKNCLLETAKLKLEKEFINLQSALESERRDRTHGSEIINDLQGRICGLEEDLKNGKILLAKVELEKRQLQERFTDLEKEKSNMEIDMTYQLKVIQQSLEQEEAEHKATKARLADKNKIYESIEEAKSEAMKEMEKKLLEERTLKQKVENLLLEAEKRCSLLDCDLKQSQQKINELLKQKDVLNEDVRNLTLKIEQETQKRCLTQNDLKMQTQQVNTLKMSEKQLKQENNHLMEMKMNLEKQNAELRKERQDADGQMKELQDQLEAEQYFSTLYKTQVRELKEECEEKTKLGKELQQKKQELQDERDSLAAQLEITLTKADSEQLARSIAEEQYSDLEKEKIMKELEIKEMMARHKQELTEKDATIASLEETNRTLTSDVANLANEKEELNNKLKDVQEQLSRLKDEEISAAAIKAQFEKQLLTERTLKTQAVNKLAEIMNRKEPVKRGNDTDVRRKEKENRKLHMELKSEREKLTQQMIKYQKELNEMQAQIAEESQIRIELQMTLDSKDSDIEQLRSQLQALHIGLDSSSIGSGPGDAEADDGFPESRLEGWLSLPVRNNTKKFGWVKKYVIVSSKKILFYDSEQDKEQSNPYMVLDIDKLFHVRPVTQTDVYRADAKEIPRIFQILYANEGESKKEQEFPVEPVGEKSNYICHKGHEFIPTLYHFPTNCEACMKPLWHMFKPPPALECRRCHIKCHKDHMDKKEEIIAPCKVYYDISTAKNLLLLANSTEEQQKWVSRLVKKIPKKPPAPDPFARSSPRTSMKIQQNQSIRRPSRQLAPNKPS

NCc1ccc(C(=O)Nc2ccncc2F)cc1-c1cccc(C(=O)Nc2ccc(SC[C@@H]3CCOC3=O)cc2)c1 [R-enantiomer]
Difference between activities of S- and R-enantiomer against ROCK2 [1]: no statistically meaningful difference | IC50 [2]: 6.2 µM | IC50 [3]: < 0.5 nM | IC50 [4]: 6 µM | IC50 [5]: 4.4 nM | CB1 (h) (antagonist effect) (IC50) [6]: Inactive | CB2 (h) (agonist effect) (EC50) [7]: Inactive | Difference between activities of S- and R-enantiomer against ROCK1 [8]: no statistically meaningful difference | IC50 [9]: 4.3 µM | EC50 [10]: 3 µM

NCc1ccc(C(=O)Nc2ccncc2F)cc1-c1cccc(C(=O)Nc2ccc(SC[C@H]3CCOC3=O)cc2)c1 [S-enantiomer]
Difference between activities of S- and R-enantiomer against ROCK2 [1]: no statistically meaningful difference | IC50 [2]: > 100 µM | IC50 [3]: 0.9 nM | IC50 [4]: 11 µM | IC50 [5]: 9.9 nM | CB1 (h) (antagonist effect) (IC50) [6]: Inactive | CB2 (h) (agonist effect) (EC50) [7]: Inactive | Difference between activities of S- and R-enantiomer against ROCK1 [8]: no statistically meaningful difference | IC50 [9]: 0.82 µM | EC50 [10]: 84 µM

Source: patent publication US20260078108A1, “SOLID FORMS OF A ROCK INHIBITOR” (REDX PHARMA PLC, priority 2022, published 2026)
